Patent US5554641A, “Nonpeptides as tachykinin antagonists” (priority 1995, dated 1996)

Each molecule was assayed against T1, human NK3 receptor (Homo sapiens, UniProt P29371) (assay: In vitro human NK3 receptor binding assay ([125I]-[MePhe7]neurokinin B, CHO cell membranes)).
T1 construct: expressed in transfected cells; host or cells: CHO cell membranes
T1 sequence (P29371 1-465): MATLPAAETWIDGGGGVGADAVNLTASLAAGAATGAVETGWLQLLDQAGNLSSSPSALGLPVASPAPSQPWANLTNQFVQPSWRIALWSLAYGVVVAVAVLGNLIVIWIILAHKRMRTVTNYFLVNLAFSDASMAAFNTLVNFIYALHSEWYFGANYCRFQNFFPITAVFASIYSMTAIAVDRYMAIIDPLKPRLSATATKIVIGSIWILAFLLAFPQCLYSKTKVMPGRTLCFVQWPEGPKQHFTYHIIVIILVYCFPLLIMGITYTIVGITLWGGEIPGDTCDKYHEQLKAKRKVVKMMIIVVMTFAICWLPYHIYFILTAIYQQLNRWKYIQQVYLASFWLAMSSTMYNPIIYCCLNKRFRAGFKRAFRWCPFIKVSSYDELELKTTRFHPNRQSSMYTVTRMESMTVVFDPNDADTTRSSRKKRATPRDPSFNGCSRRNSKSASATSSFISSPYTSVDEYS

Row | SMILES | IC50 [µM]
1 | CC(C)[C@H](OC(=O)NC(C)(Cc1cc2ccccc2o1)C(=O)NCCCCCCCNC(N)=O)c1ccccc1 (single isomer, unassigned) [Example 10] | 0.091
2 | CC(C)[C@H](OC(=O)N[C@](C)(Cc1ccccc1)C(=O)NCCCCCCCCC(N)=O)c1ccccc1 [Example 1, Carbamic acid, [2-[(9-amino-9-oxononyl)amino]-1-methyl-2-oxo-1-(phenylmethyl)ethyl]-, 2-methyl-1-phenylpropyl ester, [R-(R*,S*)]-] | 0.052
3 | CC(C)C(OC(=O)N[C@](C)(Cc1ccccc1)C(=O)NCCCCCCCCC(N)=O)c1ccc(Cl)cc1 (stereo partly shown) [Example 2, Carbamic acid, [2-[(9-amino-9-oxononyl)amino]-1-methyl-2-oxo-1-(phenylmethyl)ethyl]-, 1-(4-chlorophenyl)-2-methylpropyl ester] | 0.258
4 | C[C@](Cc1ccccc1)(NC(=O)OC(c1ccccc1)C1CCCC1)C(=O)NCCCCCCCCC(N)=O (stereo partly shown) [Example 3, [1-(8-Carbamoyl-octylcarbamoyl)-1-methyl-2-phenyl-ethyl]-carbamic acid cyclopentyl-phenyl-methyl ester] | 0.04
5 | CC1(C)CCc2ccccc2C1OC(=O)N[C@](C)(Cc1ccccc1)C(=O)NCCCCCCCCC(N)=O (stereo partly shown) [Example 4, [1-(8-Carbamoyl-octylcarbamoyl)-1-methyl-2-phenyl-ethyl]-carbamic acid 2,2-dimethyl-1,2,3,4-tetrahydro-naphthalen-1-yl ester] | 0.102
6 | C[C@](Cc1ccccc1)(NC(=O)OC1CCCCc2ccccc21)C(=O)NCCCCCCCCC(N)=O (stereo partly shown) [Example 5, [1-(8-Carbamoyl-octylcarbamoyl)-1-methyl-2-phenyl-ethyl]-carbamic acid 6,7,8,9-tetrahydro-5H-benzocyclohepten-5-yl ester] | 0.018
7 | CC1(C)CCCc2ccccc2C1OC(=O)N[C@](C)(Cc1ccccc1)C(=O)NCCCCCCCCC(N)=O (stereo partly shown) [Example 6, [1-(8-Carbamoyl-octylcarbamoyl)-1-methyl-2-phenyl-ethyl]-carbamic acid 6,6-dimethyl-6,7,8,9-tetrahydro-5H-benzocyclohepten-5-yl ester] | 0.061
8 | CC(C)C(OC(=O)NC(C)(Cc1cccc(F)c1F)C(=O)NCCCOCCCNC(N)=O)c1ccccc1 (stereo not shown) [Example 11, {2-(2,3-Difluoro-phenyl}-1-methyl-1-[3-{3-ureido-propoxy)-propylcarbamoyl]-ethyl}-carbamic acid 2-methyl-1-phenyl-propyl ester] | 0.03
9 | CC(C)[C@H](OC(=O)N[C@](C)(Cc1ccccc1)C(=O)N[C@@H](Cc1ccc(O)cc1)C(=O)NCCCCCCO)c1ccccc1 [Example 12, {1-[1-(6-Hydroxy-hexylcarbamoyl)-2-(4-hydroxy-phenyl)-ethylcarbamoyl]-1-methyl-2-phenyl-ethyl}-carbamic acid 2-methyl-1-phenyl-propyl ester] | 0.015
10 | CC(C)[C@H](OC(=O)N[C@](C)(Cc1ccccc1)C(=O)N[C@@H](Cc1ccc(O)cc1)C(=O)NCCCCCCCO)c1ccccc1 [Example 13, {1-[1-(7-Hydroxy-heptylcarbamoyl)-2-(4-hydroxy-phenyl)-ethylcarbamoyl]-1-methyl-2-phenyl-ethyl}-carbamic acid 2-methyl-1-phenyl-propyl ester] | 0.012
11 | CC(C)[C@@H](OC(=O)N[C@](C)(Cc1ccccc1)C(=O)NC(C)(C)c1ccccc1)c1ccccc1 [Example 15, [1-Methyl-1-(1-methyl-1-phenyl-ethylcarbamoyl)-2-phenyl-ethyl]-carbamic acid 2-methyl-1-phenyl-propyl ester] | 0.114
12 | CC(C)[C@@H](OC(=O)N[C@](C)(Cc1ccccc1)C(=O)N[C@@H](CO)c1ccccc1)c1ccccc1 [Example 16, [1-(2-Hydroxy-1-phenyl-ethylcarbamoyl)-1-methyl-2-phenyl-ethyl]-carbamic acid 2-methyl-1-phenyl-propyl ester] | 0.094
13 | CC(C)C(OC(=O)N[C@](C)(Cc1ccccc1)C(=O)N[C@@H](C)c1ccccc1)c1ccc(F)cc1 (stereo partly shown) [Example 17, [1-Methyl-2-phenyl-1-(1-phenyl-ethylcarbamoyl)-ethyl]-carbamic acid 1-(4-fluoro-phenyl)-2-methyl-propyl ester] | 0.982
